Values quoted from earlier work in patent US20220273645A1, “NALTREXONE FORMULATION” (INTAS PHARMACEUTICALS LTD., priority 2019, published 2022).

Assays:
[1] = test system: children with moderate to severe Crohn's disease; details: sole therapy in children with moderate-to-severe Crohn's disease
Crohn's disease = details: low dose; versus other standard therapy

Compound: O=C1CC[C@@]2(O)[C@H]3Cc4ccc(O)c5c4[C@@]2(CCN3CC2CC2)[C@H]1O5 [low dose naltrexone, (4R,4aS,7aR,12bS)-3-(cyclopropylmethyl)-4a,9-dihydroxy-2,4,5,6,7a,13-hexahydro-1H-4,12-methano benzofuro[3,2-e]isoquinoline-7-one]
- tolerability / serious adverse events [1]: well tolerated without any serious adverse events
- safety and effectiveness for the treatment of Crohn's disease (Crohn's disease): safe, effective
